The record followed here is ChEMBL document CHEMBL5126563, “Design, synthesis, in silico studies, and antiproliferative evaluations of novel indolin-2-one derivatives containing 3-hydroxy-4-pyridinone fragment” (Bioorg Med Chem Lett, 2022).

The structures appear in SMILES notation.

Assay type in all cases: functional, cell-based
The subject of test [1] is MOLM-13. Put plainly: Cytotoxicity against human MOLM-13 cells measured after 48 hrs by MTT assay. The following applies: MOLM-13, 48 h. For orientation: Tetrazolium dyes change colour on reduction, which living cells bring about.
Test [2] concerns K562. Put plainly: Cytotoxicity against human K562 cells measured after 48 hrs by MTT assay. As to conditions: K562, 48 h.
Test [3] has as its system A549. Put plainly: Cytotoxicity against human A549 cells measured after 48 hrs by MTT assay. The following applies: A549, 48 h.
In test [4] the test system is MCF7. Put plainly: Cytotoxicity against human MCF7 cells measured after 48 hrs by MTT assay. As to conditions: MCF7, 48 h.

Turning to `N#Cc1cc2cc(CN3CCC(Nc4ncnc5sc(CC(F)(F)F)cc45)CC3)c(O)cc2n1Cc1cn[nH]c1`, the figures for the concentration for a half-maximal effect (EC50) in test [1] and in test [2] were 0.14 µM and 2.7 µM, respectively.
Consider `CC(=O)Nc1ccc(NC(=O)CN2C(=O)/C(=N\NC(=O)Cn3ccc(=O)c(O)c3C)c3ccccc32)cc1`, for which the EC50 in test [3] is above 100 µM; in test [4], 51.9 µM.
In the same order, the values of `Cc1c(O)c(=O)ccn1CC(=O)N/N=C1\C(=O)N(CC(=O)Nc2cccc(Cl)c2)c2ccccc21` are 28 µM and 34.6 µM.
In the same order, the values of `Cc1cccc(NC(=O)CN2C(=O)/C(=N\NC(=O)Cn3ccc(=O)c(O)c3C)c3ccccc32)c1C` are 39.2 µM and 51.9 µM.
Turning to `Cc1ccc(NC(=O)CN2C(=O)/C(=N\NC(=O)Cn3ccc(=O)c(O)c3C)c3ccccc32)cc1`, the EC50 in test [3] is 47.5 µM; in test [4], 52.2 µM.
In the same order, the values of `Cc1c(O)c(=O)ccn1CC(=O)N/N=C1\C(=O)N(CC(=O)Nc2ccccc2Cl)c2ccccc21` are above 100 µM and 46.4 µM.
For `Cc1c(O)c(=O)ccn1CC(=O)N/N=C1\C(=O)N(CC(=O)Nc2ccc(Cl)cc2Cl)c2ccccc21`, the EC50 in test [1] came out at 1.62 µM; in test [3] it was 61.5 µM; in test [2], 1.81 µM; in test [4] it was 43.2 µM.
Consider `Cc1c(O)c(=O)ccn1CC(=O)N/N=C1\C(=O)N(CC(=O)Nc2ccccc2)c2ccccc21`, for which the EC50 in test [3] worked out at 29.2 µM; in test [4] it was 48.4 µM.
Consider `Cc1c(O)c(=O)ccn1CC(=O)N/N=C1\C(=O)N(CC(=O)Nc2cc(Cl)cc(Cl)c2)c2ccccc21`, for which the EC50 turned out to be 0.69 µM in test [1], 22.1 µM in test [3], 1.22 µM in test [2] and 35.1 µM in test [4].
Take `Cc1c(O)c(=O)ccn1CC(=O)N/N=C1\C(=O)N(CC(=O)Nc2ccc(Cl)cc2)c2ccccc21`: the EC50 came to 28.3 µM in test [3] and 31.4 µM in test [4].
Turning to `Cc1c(O)c(=O)ccn1CC(=O)N/N=C1\C(=O)N(CC(=O)Nc2ccc(Br)cc2)c2ccccc21`, the EC50 in test [1] turned out to be 1.17 µM; in test [3] it was 29.3 µM; in test [2], 1.85 µM; in test [4], 32.5 µM.
Regarding `COc1ccc(NC(=O)CN2C(=O)/C(=N\NC(=O)Cn3ccc(=O)c(O)c3C)c3ccccc32)cc1`, the EC50 in test [3] was 78 µM; in test [4], above 100 µM.
For `C#Cc1cccc(Nc2ncnc3cc(OCCOC)c(OCCOC)cc23)c1` [ERLOTINIB] the same measures were 0.29 µM and 2.83 µM.

For orientation: EC50 means the concentration that produces a half-maximal response. The low end stands for an effect from little substance, the high end for a need for much substance.
